Assay type in all cases: in vivo, BALB/c mouse
In one assay the test system is CCL-11. The assay can be described thus: Cytokine ELISA of lung protein extract (CCL-11). The following applies: eIN+mIT, mIT+eIN and eIN+mIT+eIN groups. From the text: (§1) FIG. 4 illustrates experimental design. All groups except control group were immunized with mite crude extract allergen on days 1 and 8, then mite crude extract allergen intratracheally on day 15 in all mite treated group, BALB/c mouse were divided into six groups (1) control group (PBS), (2) mites delivered intratracheally (mIT, mite on day 15) alone, (3) CMP intranasal (eIN, CMP on days 1 to 22) alone, (4) preventive-treatment group (eIN+mIT, CMP on days 1 to 14, mite on day 15) (5) therapy-treatment group (mIT+eIN, mite on day 15, CMP on days 15 to 22), and (6) preventive- and therapeutic-treatment group (eIN+mIT+eIN, CMP on days 1 to 22, mite on day 15).
(§2) FIG. 9 illustrates inhibitory effect of CMP on lung protein extract. Lung protein extracts from different groups of mouse were assayed for the indicated cytokines. Data represent one of three independent experiments. Levels of CCL-11, IL-5, IL-13 and IL-17A/F levels in lung protein extracts from mouse from treatment groups were measured by Enzyme-linked immunosorbent assay (ELISA). Each result was expressed as the mean±S.D., n=4. **, P<0.01, ***, P<0.001. […]
(§3) Levels of cytokines from lung protein extract were measured by ELISA. […] The microplates were read at 450 nm with an ELISA reader (Thermo Labsystems, Waltham, Mass., USA). […]
For orientation: An ELISA detects its analyte on a solid surface through an enzyme-linked reagent.

A further assay deals with IL-17A/F. The assay can be described thus: Cytokine ELISA of lung protein extract (IL-17A/F). The following applies: eIN+mIT, mIT+eIN and eIN+mIT+eIN groups.
From the text: as §1, §2, §3

For a further assay, the system named is mite-specific IgE. Put plainly: Serum mite-specific IgE by ELISA.
From the text: as §1
FIG. 8 illustrates inhibitory effect of CMP on serum IgE level. […] Levels of serum Derp-specific IgE were measured by enzyme-linked immunosorbent assay (ELISA). Each result was expressed as the mean±S.D., n=4. *, P<0.05, **, P<0.01. […]
Mite protein (5 μg) was coated on the plated at 4° C. overnight. […] The levels of serum mite-specific IgE were measured by enzyme-linked immunosorbent assay (ELISA).
To further analyze therapeutic effect of CMP on mite sensitization, serum mite-specific IgE levels in mice were measured from all six treatment groups. […]

For the sequence NYRWRCKNQN (CMP), the “CCL-11 in lung protein extract compared with mIT group” value in the assay with CCL-11 is given as “lower concentrations”. Besides, in the assay on IL-17A/F, the “IL-17A/F levels in lung protein extract compared with mIT group” value was “much lower”. For the same sequence, in the assay on mite-specific IgE (eIN+mIT+eIN group, day 23), the “serum mite-specific IgE level compared with mIT group” value was “much lower”. Also, the “serum mite-specific IgE reading of mIT group compared with CMP groups” value in the assay with mite-specific IgE (mIT vs eIN+mIT, mIT+eIN and eIN+mIT+eIN groups, day 18) is on record as “higher”.

Values taken from US9315544B2, “Method of treating eosinophilia by administering an immunomodulating peptide” (National Tsing Hua University, priority 2012, dated 2016).
